Consider one compound from patent US20020002294A1, “Estrogenic compounds as antiangiogenic agents” (priority 1997, published 2002).

In assay [1] the test system is Ovarian cell lines (especially OVCAR-3). The experiment in a line: Human Tumor Cell Panel Assay in vitro, ovarian panel. It is filed as cell-based. Also noted: key: Most sensitive cell panes are marked with ✓. The text has this:
(§1) The tubulin activities, breast cancer cell line activities, and the cell panels most sensitive to selected analogs are shown in Tables 3 and 4.

In a further assay the test system is CNS cell lines. The experiment in a line: Human Tumor Cell Panel Assay in vitro, CNS panel. The format is cell-based. Also noted: key: Most sensitive cell panes are marked with ✓.
Source text: as §1

Assay [2] deals with 8 human breast cancer cell lines. The experiment in a line: human tumor cell panel assay in vitro, breast panel. It is filed as cell-based. Also noted: key to Most Sensitive Cell Lines in Human Tumor Cell Panel Assay: Breast: Most sensitive cell panes are marked with ✓.
Source text: as §1

Another assay has as its system Melanoma cell lines. The experiment in a line: Human Tumor Cell Panel Assay in vitro, melanoma panel. On the set-up: key: Most sensitive cell panes are marked with ✓. The format is cell-based.
Source text: as §1

For assay [3], the system named is tubulin. The assay can be described thus: tubulin activities of 2-ME analogs (Table 3). It is filed as biochemical.
Assay [4] concerns tubulin. The assay can be described thus: inhibition of [3H]colchicine binding to tubulin. As to conditions: 1.0 μM tubulin, 10 min at 37° C. As to the method: Incubation was for 10 min. at 37° C.
Incubation was for 10 mi. at 37° C. Average values obtained in three independent experiments are presented in the table, except for 2-methoxyestrone, which was only examined twice. S.D., standard deviation.

Assay [5] has as its system tubulin. The assay can be described thus: inhibition of tubulin polymerization in vitro (turbidity at 350 nm). It is filed as biochemical. As to the method:
Anti-mitotic activity can be evaluated by testing the ability of an estradiol derivative to inhibit tubulin polymerization and microtubule assembly in vitro. Microtubule assembly is followed in a Gilford recording spectrophotometer (model 250 or 2400S) equipped with electronic temperature controllers. A reaction mixture (all concentrations refer to a final reaction volume of […]) contains 1.0 M monosodium glutamate (ph 6.6), 1. omg/ml (10 μM) tubulin, 1.0 mM MgCl2, 4% (v/v) dimethylsulfoxide and 20-75μM of a composition to be tested. The 0.24 ml reaction mixtures are incubated for 15 min. at 37° C. and then chilled on ice. After addition of 10p1 2.5mM GTP, the reaction mixture is transferred to a cuvette at 0° C., and a baseline established. At time zero, the temperature controller of the spectrophotometer is set at 37° C. Microtubule assembly is evaluated by increased turbity at 350 nm.
A. Each reaction mixture (all concentrations refer to the final reaction volume of 0.25 ml) contained 1.0 M monosodium glutamate (pH 6.6), 1.0 mg/ml (10 μM) tubulin, 1.0 mM MgCl2, 4% (v/v) dimethylsulfoxide, and either 0 (curve 1), 20μM (curve 2), 40 μM (curve 3), or 75 μM (curve 4) 2-methoxyestradiol. The 0.24 ml reaction mixtures were incubated for 15 min. at 37° C and chilled on ice. After addition of 10 μl of 2.5 mM GTP the reaction mixtures were transferred to cuvettes held at 0° C., and baselines were established. At time zero the temperature controller was set at 37° C. At the times indicated by the vertical dashed lines the temperature controller was set at the indicated temperatures.
B. Each reaction mixture contained 0.8 M monosodium glutamate (pH 6.6), 1.2 mg/ml (12 μM) tubulin, 4% (v/v) dimethylsulfoxide, and either 0 (curve 1), 1.0 FM (curve 2), 2.0 ,M (curve 3), 3.0 μM (curve 4), or 4.0 μM (curve 5) 2-methoxyestradiol. The 0.24 ml reaction mixtures were incubated for 15 min. at 26° C. and chilled on ice. After addition of 10μl of 10 mM GTP the reaction mixtures were transferred to cuvettes held at 0° C., and baselines were established. At time zero the temperature controller was set at 26° C. At the time indicated by vertical dashed line the temperature controller was set at 0° C.
The method is given in Example 1.
S.D., standard deviation.

The subject of assay [6] is corneal neovascularization. The experiment in a line: Mouse Corneal Micropocket Assay. It is filed as in vivo, mice. The note with it: 150 mg/kg, daily oral, 5 days. The method, then:
Five- to 7-week-old SCID female mice were obtained from Massachusetts General Hospital (Boston, Mass.), Immunocompetent 7-9-week-old female C57BL/6 mice were obtained from ARCH Technical Services, Children's Hospital (Boston, Mass.). All animal studies were conducted according to protocols approved by the Animal Ethics Committee of Children's Hospital. Animals were anesthetized in a methoxyflurane (Pittman-Moore, Mundelein, Ill.) chamber prior to all procedures and were observed until fully recovered. Animals were sacrificed by a lethal dose of methoxyflurane.
Mouse Corneal Micropocket Assay To study the effect of microtubule inhibitors on angiogenesis in vivo, a model of angiogenesis in the mouse cornea was used in […] mice as described previously (Kenyon, B. B., Voest, E. E., Chen, C. C., Folkman, J., and D'Amato, R. J. A model of angiogenesis in the mouse cornea. Invest. Ophthalmol. & Visual Sci., 76: 1625-1632, 1996). In brief, after animals were anesthetized, corneal micropockets were created in both eyes with a modified von Graefe cataract knife. Into each pocket, a 0.4 mm ×0.4 mm×0.2 mm sucrose aluminum sulfate (Bukh Meditee, Copenhagen, Denmark) pellet coated with hydron polymer type NCC (IHN Sciences, New Brunswick, N.J.) containing 80 ng of bFGF or 160 ng of human recombinant […] (gift from Reprogenesis, Cambridge, Mass.) was implanted 1.0-1.2 mm from the limbal vessels (bFGF experiments) or 0.5-0.7 mm from the limbus (VEGF experiments). Erythromycin ointment (E. Fougera, Melville, N.Y.) was applied to each operated eye. The sucralfate acts to stabilize the growth factor and to slow its release from the hydron. Before testing each drug in this assay, we found the maximal dose that could be administered daily for 5 consecutive days without producing signs of toxicity (i.e., no hair loss, diarrhea, infection, lethargy, or weight loss). The treated groups received daily oral administration for 5 consecutive days of the stated dosage of 2-ME or a derivative thereof suspended in 0.5 g/100 ml of carboxymethylcellulose.
Treatment was started on the day of pellet implantation. […] For this purpose, the eyes of the mice were examined by slit-lamp biomicroscopy. Area of corneal neovascularization was calculated using a modified formula for a half-ellipse: Area (mm^2)=[π×clock hours×length (mm)×0.2 mm]. This formula provides the most accurate approximation of the area of neovascularization that grows toward the pellet. (Kenyon, B. B., Voest, E. E., Chen, C. C., Folkman, J., and D'Amato, R. J. A model of angiogenesis in the mouse cornea. Invest. Ophthalmol. & Visual Sci., 76: 1625-1632, 1996).

Molecules are shown by their SMILES.

As for `COc1cc2c(cc1O)CCC1C2CCC2(C)C(O)CCC12` (centres unmarked) [NSC 659853, 2-Methoxyestradiol], the “Most Sensitive Cell Lines in Human Tumor Cell Panel Assay: Ovarian” value in assay [1] was “✓”. In the assay with CNS cell lines, the “Most Sensitive Cell Lines in Human Tumor Cell Panel Assay: CNS” value is given as “✓”. In assay [2] (8 cell lines, only MCF-7 and T-47D express estrogen and progesterone receptors), the “Most Sensitive Cell Lines in Human Tumor Cell Panel Assay: Breast” value was “✓”. Moreover, the IC50 is 234 nM in assay [2] (Homo sapiens, cell panel assay in vitro, two values per cell separated by /, read-out: Tumor Panel: Average log IC50(Molar) against 8 human breast cancer cell lines (converted)); 3600 ± 400 nM in the assay on tubulin [3]; 1900 ± 200 nM with tubulin [5] (read-out: IC50 (concentration required to inhibit tubulin polymerization by 50%), mean ± S.D., method of Example 1). In addition, the “Most Sensitive Cell Lines in Human Tumor Cell Panel Assay: Melanoma” value in the assay with Melanoma cell lines is recorded as “✓”. For the same compound, the “inhibition of colchicine binding to tubulin (FIG. 2), in words” value with tubulin [4] (5 μM [3H]colchicine) is “inhibits colchicine binding to tubulin”. In addition, in the assay with tubulin [4] (100 μM inhibitor, 2 μM [3H]colchicine, ± S.D.), the “Percentage Inhibition of colchicine binding to tubulin” value is reported as 82 ± 2%. Besides, the “inhibition of tubulin polymerization (FIG. 1), in words” value in the assay with tubulin [5] (20-75 μM (A) or 1.0-4.0 μM (B) 2-methoxyestradiol) is “inhibition of tubulin polymerization”. Moreover, the “inhibition in corneal pocket assay” value in assay [6] came out at 25%.
